Assay results taken from patent publication US7312245B2 (priority 2001, dated 2007).
Where two headings read alike, the source gives them in different places.

Assays:
Assay type in all cases: in vivo
Pyricularia oryzae [1] = conditions: spray application of wettable powder diluted to 500 ppm; rice Koshihikari 2-leaf stage; spray-inoculated with Pyricularia oryzae spores; examined after 7 days
Pyricularia oryzae [2] = conditions: granules applied to water surface at 3 kg/10 ares; rice Koshihikari; inoculated 30 days after application; lesions checked after 1 week
Pyricularia oryzae [3] = conditions: nursery box treated with granules 50 g per box; rice Koshihikari; inoculated 30 days after transplantation; lesions counted after 1 week

| Compound | Grade of Effect (preventive value, rice blast controlling effect) (Pyricularia oryzae [1]) | Grade of Effect (preventive value, rice blast controlling effect) (Pyricularia oryzae [2]) | Grade of Effect (preventive value, rice blast controlling effect) (Pyricularia oryzae [3]) |
| --- | --- | --- | --- |
| COC(=O)NC(C)CNC(=O)c1ccc(Cl)cc1 (stereo not drawn) [compound 4] | A (100%) | A (From 80% to 100%) | A (From 80% to 100%) |
| Cc1ccc(C(=O)NCC(NC(=O)Oc2ccccc2)C(C)C)cc1 (stereo not drawn) [compound 530] | A (100%) | A (From 80% to 100%) | A (From 80% to 100%) |
| Cc1ccc(C(=O)NCC(NC(=O)OC(C)C)c2ccc(Cl)cc2)cc1 (stereo not drawn) [compound 284] | A (100%) | A (From 80% to 100%) | A (From 80% to 100%) |
| C#CCOC(=O)NC(CNC(=O)c1ccc(Cl)cc1)C(C)C (stereo not drawn) [compound 804] | A (100%) | A (From 80% to 100%) | A (From 80% to 100%) |
| Cc1ccc(C(=O)NCC(NC(=O)OC(C)C)c2ccccc2)cc1 (stereo not drawn) [compound 279] | A (100%) | A (From 80% to 100%) | A (From 80% to 100%) |
| C=CCOC(=O)NC(CNC(=O)c1ccc(Cl)cc1)C(C)C (stereo not drawn) [compound 739] | A (100%) | A (From 80% to 100%) | A (From 80% to 100%) |
| CC(CNC(=O)c1ccccc1)NC(=O)c1ccccc1 (stereo not drawn) [Formula (7), reference compound] | D (less than 50%) | C (less than 50%) | C (less than 50%) |
| Cc1ccc(COC(=O)NC(CNC(=O)c2ccc(Cl)cc2)C(C)C)cc1 (stereo not drawn) [compound 1049] | A (100%) | A (From 80% to 100%) | A (From 80% to 100%) |
| Cc1ccc(COC(=O)NC(CNC(=O)c2ccc(C)cc2)C(C)C)cc1 (stereo not drawn) [compound 1050] | A (100%) | A (From 80% to 100%) | A (From 80% to 100%) |
| Cc1ccc(C(=O)NCC(NC(=O)OCCS(C)(=O)=O)C(C)C)cc1 (stereo not drawn) [compound 1276] | A (100%) | A (From 80% to 100%) | A (From 80% to 100%) |
| CC(C)C(CNC(=O)c1ccccc1)NC(=O)Oc1ccccc1 (stereo not drawn) [compound 526] | A (100%) | A (From 80% to 100%) | A (From 80% to 100%) |
| Cc1ccc(C(=O)NCC(NC(=O)OCC(C)(C)C)C(C)C)cc1 (stereo not drawn) [compound 1201] | A (100%) | A (From 80% to 100%) | A (From 80% to 100%) |
| COC(=O)NC(CNC(=O)c1ccc(C)cc1)C(C)C (stereo not drawn) [compound 30] | A (100%) | A (From 80% to 100%) | A (From 80% to 100%) |
| Cc1ccc(C(=O)NC(C)C(NC(=O)OC(C)C)C(C)C)cc1 (stereo not drawn) [compound 246] | A (100%) | A (From 80% to 100%) | A (From 80% to 100%) |
| C=C(C)COC(=O)NC(CNC(=O)c1ccc(C)cc1)C(C)C (stereo not drawn) [compound 1216] | A (100%) | A (From 80% to 100%) | A (From 80% to 100%) |
| CC(C)OC(=O)NC(C(C)C)C(C)NC(=O)c1ccc(Cl)cc1 (stereo not drawn) [compound 247] | A (100%) | A (From 80% to 100%) | A (From 80% to 100%) |
| CC(C)COC(=O)NC(CNC(=O)c1ccc(Cl)cc1)C(C)C (stereo not drawn) [compound 384] | A (100%) | A (From 80% to 100%) | A (From 80% to 100%) |
| Cc1ccc(C(=O)NCC(NC(=O)OC(C)C(C)C)C(C)C)cc1 (stereo not drawn) [compound 1231] | A (100%) | A (From 80% to 100%) | A (From 80% to 100%) |
| Cc1ccc(C(=O)NCC(C)(NC(=O)OC(C)C)C(C)C)cc1 (stereo not drawn) [compound 245] | A (100%) | A (From 80% to 100%) | A (From 80% to 100%) |
| CC(C)C(CNC(=O)c1ccc(Cl)cc1)NC(=O)OCc1ccoc1 (stereo not drawn) [compound 1138] | A (100%) | A (From 80% to 100%) | A (From 80% to 100%) |
| Cc1ccc(C(=O)NCC(NC(=O)OCC2CC2)C(C)C)cc1 (stereo not drawn) [compound 1186] | A (100%) | A (From 80% to 100%) | A (From 80% to 100%) |
| Cc1ccc(C(=O)NCC(NC(=O)OCC2CCCO2)C(C)C)cc1 (stereo not drawn) [compound 1156] | A (100%) | A (From 80% to 100%) | A (From 80% to 100%) |
| CC(C)C(CNC(=O)c1ccc(Cl)cc1)NC(=O)OCC(C)(C)C (stereo not drawn) [compound 1198] | A (100%) | A (From 80% to 100%) | A (From 80% to 100%) |
